In patent US20130165428A1, “XANTHINE DERIVATIVES, THE PREPARATION THEREOF AND THEIR USE AS PHARMACEUTICAL COMPOSITIONS” (Boehringer Ingelheim Pharma GmbH & Co. KG, priority 2001, published 2013):
Structures can show the parent of a compound that is named as a salt.

System: not given
Assay: not given
Details: not given

SMILES	melting point
Cn1c(=O)c2c(nc(N3CCCC(N)C3)n2C)n(C)c1=O (centres unmarked) [Example 1(115), 1,3,7-trimethyl-8-(3-amino-piperidin-1-yl)-xanthine]	147 °C
CC(C)=CCn1c(N2CCC[C@H](N)C2)nc2c1c(=O)n(CCC(=O)O)c(=O)n2C [Example 6(4), 1-(2-carboxy-ethyl)-3-methyl-7-(3-methyl-2-buten-1-yl)-8-((S)-3-amino-piperidin-1-yl)-xanthine]	226 to 228 °C
Cn1c(=O)c2c(nc(N3CCC(N)C3)n2Cc2ccccc2)n(C)c1=O (centres unmarked) [Example 1, 1,3-dimethyl-7-benzyl-8-(3-amino-pyrrolidin-1-yl)-xanthine]	150 °C
CC(C)=CCn1c(N2CCCC(N)C2)nc2c1c(=O)n(CCc1cc(F)cc(F)c1)c(=O)n2C (centres unmarked) [Example 2(36), 1-[2-(3,5-difluoro-phenyl)-ethyl]-3-methyl-7-(3-methyl-2-buten-1-yl)-8-(3-amino-piperidin-1-yl)-xanthine]	162 to 163.5 °C
CC(C)=CCn1c(N2CCC(N)C2)nc2c1c(=O)n(C)c(=O)n2C (centres unmarked) [Example 1(1), 1,3-dimethyl-7-(3-methyl-2-buten-1-yl)-8-(3-amino-pyrrolidin-1-yl)-xanthine]	119 °C
CC(C)=CCn1c(N(C)CC(N)C(=O)N2CCCC2)nc2c1c(=O)n(C)c(=O)n2C (centres unmarked) [Example 2(142), 1,3-dimethyl-7-(3-methyl-2-buten-1-yl)-8-{N-[2-amino-3-oxo-3-(pyrrolidin-1-yl)-propyl]-N-methyl-amino}-xanthine]	138 °C
CC(C)=CCn1c(N2CCCC(N)C2)nc2c1c(=O)n(CCn1cccc1)c(=O)n2C (centres unmarked) [Example 1(61), 1-[2-(pyrrol-1-yl)-ethyl]-3-methyl-7-(3-methyl-2-buten-1-yl)-8-(3-amino-piperidin-1-yl)-xanthine]	136 to 138.6 °C
CN[C@H]1CCCC[C@H]1Nc1nc2c(c(=O)n(C)c(=O)n2C)n1CC=C(C)C (relative stereo) [Example 1(77), 1,3-dimethyl-7-(3-methyl-2-buten-1-yl)-8-[cis-(2-methylamino-cyclohexyl)amino]-xanthine]	172.5 to 175 °C
CC(C)=CCn1c(N2CCCC(N)C2)nc2c1c(=O)n(C)c(=O)n2C(C)C (centres unmarked) [Example 2(60), 1-methyl-3-isopropyl-7-(3-methyl-2-buten-1-yl)-8-(3-amino-piperidin-1-yl)-xanthine]	115 to 117 °C
C=CCCn1c(=O)c2c(nc(N3CCCC(N)C3)n2CC=C(C)C)n(C)c1=O (centres unmarked) [Example 1(66), 1-(3-butene-1-yl)-3-methyl-7-(3-methyl-2-buten-1-yl)-8-(3-amino-piperidin-1-yl)-xanthine]	111 to 112.6 °C
CC(C)=CCn1c(N2CCCC(N)(C(=O)N3CCCC3)C2)nc2c1c(=O)n(C)c(=O)n2C (centres unmarked) (as salt: sodium) [Example 1(139), 1,3-dimethyl-7-(3-methyl-2-buten-1-yl)-8-[3-amino-3-(pyrrolidin-1-ylcarbonyl)-piperidin-1-yl]-xanthine]	159 to 160 °C
C#CCCn1c(=O)c2c(nc(N3CCCC(N)C3)n2CC=C(C)C)n(C)c1=O (centres unmarked) [Example 1(65), 1-(3-butyn-1-yl)-3-methyl-7-(3-methyl-2-buten-1-yl)-8-(3-amino-piperidin-1-yl)-xanthine]	150 to 152 °C
CC(C)=CCn1c(N2CCCC(N)C2)nc2c1c(=O)n(CCc1cccc(F)c1)c(=O)n2C (centres unmarked) [Example 1(98), 1-[2-(3-fluoro-phenyl)-ethyl]-3-methyl-7-(3-methyl-2-buten-1-yl)-8-(3-amino-piperidin-1-yl)-xanthine]	126.8 to 127.5 °C
CC(C)=CCn1c(N2CCCC(N)C2)nc2c1c(=O)n(CCc1ccc(Cl)cc1Cl)c(=O)n2C (centres unmarked) [Example 1(37), 1-[2-(2,4-dichloro-phenyl)-ethyl]-3-methyl-7-(3-methyl-2-buten-1-yl)-8-(3-amino-piperidin-1-yl)-xanthine]	130 to 132 °C
CC(C)=CCn1c(NCC(C)(C)N)nc2c1c(=O)n(C)c(=O)n2C [Example 1(134), 1,3-dimethyl-7-(3-methyl-2-buten-1-yl)-8-(2-amino-2-methyl-propylamino)-xanthine]	140.5 to 143 °C
CC(C)=CCn1c(NC[C@@H](C)N)nc2c1c(=O)n(C)c(=O)n2C [Example 1(135), 1,3-dimethyl-7-(3-methyl-2-buten-1-yl)-8-((R)-2-amino-propylamino)-xanthine]	141 to 144 °C
CC(C)=CCn1c(N2CCCC(N)C2)nc2c1c(=O)n(C)c(=O)n2CCC#N (centres unmarked) [Example 2(62), 1-methyl-3-(2-cyano-ethyl)-7-(3-methyl-2-buten-1-yl)-8-(3-amino-piperidin-1-yl)-xanthine]	146 to 149 °C
CCOC(=O)c1ccc(CCn2c(=O)c3c(nc(N4CCC[C@H](N)C4)n3CC=C(C)C)n(C)c2=O)cc1 [Example 2(21), 1-{2-[4-(ethoxycarbonyl)-phenyl]-ethyl}-3-methyl-7-(3-methyl-2-buten-1-yl)-8-((S)-3-amino-piperidin-1-yl)-xanthine]	142 to 144 °C
CC(C)=CCn1c(N2CCCC(N)C2)nc2c1c(=O)n(CCc1ccccc1)c(=O)n2CC(=O)O (centres unmarked) [Example 6(5), 1-(2-phenyl-ethyl)-3-carboxymethyl-7-(3-methyl-2-buten-1-yl)-8-(3-amino-piperidin-1-yl)-xanthine]	228 to 235 °C
CC(C)=CCn1c(N2CCC[C@H]2CN)nc2c1c(=O)n(C)c(=O)n2C [Example 1(76), 1,3-dimethyl-7-(3-methyl-2-buten-1-yl)-8-{(S)-[2-(aminomethyl)-pyrrolidin-1-yl]}-xanthine]	112 to 115 °C
CC(C)=CCn1c(N2CCCC(N)C2)nc2c1c(=O)n(CCc1cccc(Br)c1)c(=O)n2C (centres unmarked) [Example 1(87), 1-[2-(3-bromo-phenyl)-ethyl]-3-methyl-7-(3-methyl-2-buten-1-yl)-8-(3-amino-piperidin-1-yl)-xanthine]	116.5 to 117.5 °C
CC(C)=CCn1c(N2CCCC(N)C2)nc2c1c(=O)n(CCc1cccc([N+](=O)[O-])c1)c(=O)n2C (centres unmarked) [Example 1(99), 1-[2-(3-nitro-phenyl)-ethyl]-3-methyl-7-(3-methyl-2-buten-1-yl)-8-(3-amino-piperidin-1-yl)-xanthine]	120.8 to 122 °C
CC(C)=CCn1c(N2CCCC(N)C2)nc2c1c(=O)n(CCc1ccc(C)cc1)c(=O)n2C (centres unmarked) [Example 1(100), 1-[2-(4-methyl-phenyl)-ethyl]-3-methyl-7-(3-methyl-2-buten-1-yl)-8-(3-amino-piperidin-1-yl)-xanthine]	129 to 130.2 °C
COc1cccc(CCn2c(=O)c3c(nc(N4CCCC(N)C4)n3CC=C(C)C)n(C)c2=O)c1 (centres unmarked) [Example 1(86), 1-[2-(3-methoxy-phenyl)-ethyl]-3-methyl-7-(3-methyl-2-buten-1-yl)-8-(3-amino-piperidin-1-yl)-xanthine]	118.5 to 119.5 °C
COC(=O)Cn1c(=O)c2c(nc(N3CCC[C@H](N)C3)n2CC=C(C)C)n(C)c1=O [Example 2(19), 1-[(methoxycarbonyl)-methyl]-3-methyl-7-(3-methyl-2-buten-1-yl)-8-((S)-3-amino-piperidin-1-yl)-xanthine]	102 to 105 °C
CC(C)=CCn1c(N2CCCC(N)C2)nc2c1c(=O)n(CCc1c(C)cc(C)cc1C)c(=O)n2C (centres unmarked) [Example 1(36), 1-[2-(2,4,6-trimethyl-phenyl)-ethyl]-3-methyl-7-(3-methyl-2-buten-1-yl)-8-(3-amino-piperidin-1-yl)-xanthine]	153 to 154.5 °C

Target: T1, DPP-IV (Homo sapiens, UniProt P27487)
T1 construct: an extract of the human colon carcinoma cell line Caco-2 is used as the DPP IV source; host or cells: Caco-2 (differentiated to induce DPP-IV expression), Nonidet-P40 solubilised extract
T1 sequence (P27487 whole entry): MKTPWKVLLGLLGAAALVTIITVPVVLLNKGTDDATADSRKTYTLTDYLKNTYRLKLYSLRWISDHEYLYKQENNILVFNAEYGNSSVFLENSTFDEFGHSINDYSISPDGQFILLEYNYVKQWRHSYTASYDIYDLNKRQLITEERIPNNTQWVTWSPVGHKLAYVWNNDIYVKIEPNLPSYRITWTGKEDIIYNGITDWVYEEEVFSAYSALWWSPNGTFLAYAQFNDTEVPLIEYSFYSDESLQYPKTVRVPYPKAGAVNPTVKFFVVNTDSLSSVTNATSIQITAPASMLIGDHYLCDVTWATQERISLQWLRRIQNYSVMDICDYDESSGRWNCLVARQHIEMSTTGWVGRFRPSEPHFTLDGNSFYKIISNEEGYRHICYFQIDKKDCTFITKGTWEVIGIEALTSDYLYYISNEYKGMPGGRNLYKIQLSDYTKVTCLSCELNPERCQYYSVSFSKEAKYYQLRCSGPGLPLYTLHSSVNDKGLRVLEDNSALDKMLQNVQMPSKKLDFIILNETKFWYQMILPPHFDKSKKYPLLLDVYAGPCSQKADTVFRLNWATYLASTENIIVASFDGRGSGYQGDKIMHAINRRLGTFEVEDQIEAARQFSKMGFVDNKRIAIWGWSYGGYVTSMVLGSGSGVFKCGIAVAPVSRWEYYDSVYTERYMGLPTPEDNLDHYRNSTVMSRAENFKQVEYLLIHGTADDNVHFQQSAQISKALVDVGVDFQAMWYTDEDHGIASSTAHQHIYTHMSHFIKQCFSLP
Assay: DPP-IV assay with extract of Caco-2 cells as DPP IV source
Format: biochemical
Details: extract of human colon carcinoma cell line Caco-2 as DPP IV source, substrate AFC 100 μM, 60 minutes, ambient temperature; read-out: DPP IV inhibition IC50
Protocol: This cell line was obtained from the American Type Culture Collection (ATCC HTB 37). […] The cell extract was obtained from cells solubilised in a buffer (10 mM Tris HCl, 0.15 M NaCl, 0.04 t.i.u. aprotinin, 0.5% Nonidet-P40, pH 8.0) by centrifugation at 35,000 g for 30 minutes at 4° C. (to remove cell debris).
The DPP-IV assay was carried out as follows:
50 μl of substrate solution (AFC; AFC is amido-4-trifluoromethylcoumarin), final concentration 100 μM, were placed in black microtitre plates. 20 μl of assay buffer (final concentrations 50 mM Tris HCl pH 7.8, 50 mM NaCl, 1% DMSO) was pipetted in. The reaction was started by the addition of 30 μl of solubilised Caco-2 protein (final concentration 0.14 μg of protein per well). The test substances under investigation were typically added prediluted to 20 μl, while the volume of assay buffer was then reduced accordingly. The reaction was carried out at ambient temperature, the incubation period was 60 minutes. […] Dummy values (corresponding to 0% activity) were obtained in mixtures with no Caco-2 protein (volume replaced by assay buffer), control values (corresponding to 100% activity) were obtained in mixtures without any added substance.

SMILES	IC50
CCn1c(=O)n(C)c(=O)c2c1nc(N1CCCC(N)C1)n2Cc1ccccc1 (centres unmarked) [1(34), 1-methyl-3-ethyl-7-benzyl-8-(3-amino-piperidin-1-yl)-xanthine]	205 nM
CC(C)=CCn1c(N2CCCC(N)C2)nc2c1c(=O)n(C)c(=O)n2CC(=O)c1ccccc1 (centres unmarked) [2(56), 1-methyl-3-(2-phenyl-2-oxo-ethyl)-7-(3-methyl-2-buten-1-yl)-8-(3-amino-piperidin-1-yl)-xanthine]	64 nM
C=CCn1c(=O)c2c(nc(N3CCCC(N)C3)n2CC=C(C)C)n(C)c1=O (centres unmarked) [1(21), 1-(2-propen-1-yl)-3-methyl-7-(3-methyl-2-buten-1-yl)-8-(3-amino-piperidin-1-yl)-xanthine]	124 nM
Cc1cccc(-n2c(N3CCCC(N)C3)nc3c2c(=O)n(C)c(=O)n3C)c1 (centres unmarked) [1(62), 1,3-dimethyl-7-(3-methyl-phenyl)-8-(3-amino-piperidin-1-yl)-xanthine]	167 nM
CC(C)=CCn1c(N(C)CCN)nc2c1c(=O)n(C)c(=O)n2C [1(35), 1,3-dimethyl-7-(3-methyl-2-buten-1-yl)-8-[N-(2-aminoethyl)-methylamino]-xanthine]	95 nM
CC(C)=CCn1c(N2CCCC(N)C2)nc2c1c(=O)n(C(C)C)c(=O)n2C (centres unmarked) [1(19), 1-(2-propyl)-3-methyl-7-(3-methyl-2-buten-1-yl)-8-(3-amino-piperidin-1-yl)-xanthine]	2770 nM
